Entries after “also recorded” stand apart in the source; their conditions may differ.
Key:
[1] = test system: VN1194 H5 HA from A/Vietnam/1194/2004 (H5N1); conditions: cited from earlier work
H5FR H5 HA = assay type: binding, A/duck/France/161108h/2016 (H5N8)
[2] = test system: Sh2 H7 HA from A/Shanghai/2/2013 (H7N9); conditions: cited from earlier work
[3] = target: H5FR H5 HA ectodomain from A/duck/France/161108h/2016 (H5N8), polyhistidine-tagged (SPR form) (influenza A virus A/duck/France/161108h/2016 (H5N8)); test: SPR

**Q.** Which “Siaα2–3Gal linkage configuration of 3´-SLN in VN1194 H5 HA” value [1] does the source give for CC(=O)NC1C(O)OC(CO)C(OC2OC(CO)C(O)C(OC3(C(=O)O)CC(O)C(NC(C)=O)C(C(O)C(O)CO)O3)C2O)C1O (centres unmarked) [3´-SLN, NeuAcα2–3Galβ1–4GlcNAc] here?
**A.** The value was “trans configuration”.

**Q.** Which results are given for “NeuAcα2–3Galβ1–3GlcNAcβ1–3Galβ1–4Glc [LSTa]”?
**A.** binding interactions in H5FR HA receptor binding site (H5FR H5 HA): Sia-1, Gal-2 and GlcNAc-3 were ordered; also recorded: similarly to VN1194 HA or H5VN HA; LSTa residues visible in VN1194 H5 HA complex [1]: only Sia-1 and Gal-2 were visible

**Q.** With “NeuAcα2–3Galβ1–4GlcNAcβ1–3GalNAcα-Thr [glycan #21]” as the compound, how does the “binding mode of glycan in Sh2 H7 HA” value [2] read?
**A.** Its value is “adopts a cis configuration in the Siaα2–3Gal linkage”.

**Q.** Which Kd [3] does the source give for “O-linked glycopeptide compound 2 (core 1 on peptide FVTIG, no sialic acid)” here?
**A.** The Kd was > 650 µM.
